Measured values: the NIST ThermoML archive (doi:10.1021/je800150h)

Test: mn = molality of the nth substance listed, in mol/kg
Settings: 101 kPa, Liquid; for electrical conductivity: CyberScan CON500 conductivity meter

[Cl-].[Li+] [lithium chloride] + CCO
Settings | electrical conductivity [S/m] | mass density [kg/m3] | viscosity [mPa·s]
268.1 K, m1 = 0.196 | 0.117 | 810.9 | 2.208
268.1 K, m1 = 0.391 | 0.197 | 817.9 | 2.546
268.1 K, m1 = 0.782 | 0.269 | 828.4 | 3.283
268.1 K, m1 = 1.173 | 0.3 | 838.1 | 4.167
268.1 K, m1 = 1.76 | 0.305 | 854.5 | 5.819
268.1 K, m1 = 2.347 | 0.276 | 869.4 | 9.082
268.1 K, m1 = 3.129 | 0.222 | 887.7 | 14.96
268.1 K, m1 = 3.911 | 0.162 | 907.8 | 25.44
273.1 K, m1 = 0.196 | 0.13 | 805.1 | 2.043
273.1 K, m1 = 0.391 | 0.221 | 810.6 | 2.313
273.1 K, m1 = 0.782 | 0.3 | 821.3 | 2.943
273.1 K, m1 = 1.173 | 0.335 | 832.5 | 3.722
273.1 K, m1 = 1.76 | 0.343 | 847 | 5.158
273.1 K, m1 = 2.347 | 0.315 | 863.1 | 7.821
273.1 K, m1 = 3.129 | 0.258 | 882.4 | 12.71
273.1 K, m1 = 3.911 | 0.198 | 901.1 | 21.16
278.1 K, m1 = 0.196 | 0.144 | 803.2 | 1.863
278.1 K, m1 = 0.391 | 0.245 | 810.3 | 2.099
278.1 K, m1 = 0.782 | 0.336 | 821.5 | 2.638
278.1 K, m1 = 1.173 | 0.383 | 834.1 | 3.323
278.1 K, m1 = 1.76 | 0.394 | 845.5 | 4.57
278.1 K, m1 = 2.347 | 0.362 | 864.5 | 6.735
278.1 K, m1 = 3.129 | 0.3 | 883.6 | 10.78
278.1 K, m1 = 3.911 | 0.238 | 902.1 | 17.62
283.1 K, m1 = 0.196 | 0.158 | 796.1 | 1.695
283.1 K, m1 = 0.391 | 0.27 | 800.9 | 1.908
283.1 K, m1 = 0.782 | 0.37 | 812.2 | 2.366
283.1 K, m1 = 1.173 | 0.441 | 823.4 | 2.959
283.1 K, m1 = 1.76 | 0.445 | 837.4 | 4.045
283.1 K, m1 = 2.347 | 0.417 | 854.2 | 5.802
283.1 K, m1 = 3.129 | 0.348 | 875.7 | 9.203
283.1 K, m1 = 3.911 | 0.276 | 891.8 | 14.68
288.15 K, m1 = 0.196 | 0.172 | 789.7 | 1.495
288.15 K, m1 = 0.391 | 0.295 | 795.9 | 1.715
288.15 K, m1 = 0.782 | 0.415 | 807.5 | 2.1
288.15 K, m1 = 1.173 | 0.477 | 817.5 | 2.603
288.15 K, m1 = 1.76 | 0.505 | 831.6 | 3.546
288.15 K, m1 = 2.347 | 0.472 | 849.1 | 4.988
288.15 K, m1 = 3.129 | 0.396 | 868.4 | 7.807
288.15 K, m1 = 3.911 | 0.322 | 886.9 | 12.34
293.15 K, m1 = 0.196 | 0.188 | 786 | 1.357
293.15 K, m1 = 0.391 | 0.325 | 791.9 | 1.524
293.15 K, m1 = 0.782 | 0.459 | 803.3 | 1.869
293.15 K, m1 = 1.173 | 0.533 | 813.6 | 2.307
293.15 K, m1 = 1.76 | 0.565 | 828.8 | 3.124
293.15 K, m1 = 2.347 | 0.529 | 845.4 | 4.395
293.15 K, m1 = 3.129 | 0.45 | 864.7 | 6.784
293.15 K, m1 = 3.911 | 0.367 | 883.4 | 10.56
298.15 K, m1 = 0.196 | 0.231 | 782.4 | 1.218
298.15 K, m1 = 0.391 | 0.354 | 788.3 | 1.412
298.15 K, m1 = 0.782 | 0.506 | 799.4 | 1.677
298.15 K, m1 = 1.173 | 0.589 | 810.3 | 2.057
298.15 K, m1 = 1.76 | 0.629 | 823.8 | 2.767
298.15 K, m1 = 2.347 | 0.6 | 842.3 | 3.869
298.15 K, m1 = 3.129 | 0.514 | 861.9 | 5.908
298.15 K, m1 = 3.911 | 0.427 | 880.5 | 9.071
303.15 K, m1 = 0.196 | 0.25 | 776.5 | 1.089
303.15 K, m1 = 0.391 | 0.384 | 782.5 | 1.306
303.15 K, m1 = 0.782 | 0.554 | 794.7 | 1.527
303.15 K, m1 = 1.173 | 0.649 | 804.8 | 1.846
303.15 K, m1 = 1.76 | 0.697 | 819.5 | 2.469
303.15 K, m1 = 2.347 | 0.67 | 837.1 | 3.436
303.15 K, m1 = 3.129 | 0.575 | 856.7 | 5.171
303.15 K, m1 = 3.911 | 0.487 | 875.4 | 7.924
308.15 K, m1 = 0.196 | 0.27 | 773.8 | 1.006
308.15 K, m1 = 0.391 | 0.42 | 779.7 | 1.129
308.15 K, m1 = 0.782 | 0.605 | 791.2 | 1.369
308.15 K, m1 = 1.173 | 0.711 | 802.3 | 1.671
308.15 K, m1 = 1.76 | 0.772 | 816.6 | 2.223
308.15 K, m1 = 2.347 | 0.746 | 835.6 | 3.077
308.15 K, m1 = 3.129 | 0.644 | 854.7 | 4.578
308.15 K, m1 = 3.911 | 0.551 | 873.6 | 6.884
313.15 K, m1 = 0.196 | 0.289 | 773 | 0.928
313.15 K, m1 = 0.391 | 0.447 | 779 | 1.046
313.15 K, m1 = 0.782 | 0.652 | 790.7 | 1.267
313.15 K, m1 = 1.173 | 0.773 | 801.9 | 1.524
313.15 K, m1 = 1.76 | 0.852 | 815.8 | 2.01
313.15 K, m1 = 2.347 | 0.822 | 835.2 | 2.762
313.15 K, m1 = 3.129 | 0.712 | 854.7 | 4.089
313.15 K, m1 = 3.911 | 0.624 | 873.7 | 6.076
318.15 K, m1 = 0.196 | 0.309 | 772.2 | 0.866
318.15 K, m1 = 0.391 | 0.48 | 778.6 | 0.968
318.15 K, m1 = 0.782 | 0.708 | 790.9 | 1.164
318.15 K, m1 = 1.173 | 0.843 | 801.8 | 1.414
318.15 K, m1 = 1.76 | 0.931 | 816.8 | 1.842
318.15 K, m1 = 2.347 | 0.91 | 834.9 | 2.538
318.15 K, m1 = 3.129 | 0.792 | 853.9 | 3.735
318.15 K, m1 = 3.911 | 0.697 | 874 | 5.603
323.15 K, m1 = 0.196 | 0.327 | 768.7 | 0.807
323.15 K, m1 = 0.391 | 0.512 | 774.3 | 0.884
323.15 K, m1 = 0.782 | 0.762 | 786.1 | 1.07
323.15 K, m1 = 1.173 | 0.911 | 796.6 | 1.285
323.15 K, m1 = 1.76 | 1.02 | 811 | 1.677
323.15 K, m1 = 2.347 | 0.998 | 830.4 | 2.335
323.15 K, m1 = 3.129 | 0.875 | 851.3 | 3.437
323.15 K, m1 = 3.911 | 0.783 | 869.4 | 5.009
